Measured values as given in patent US20060063784A1, “Method of using substituted pyrazolo [1,5-a] pyrimidines” (priority 2004, published 2006).
Like-named read-outs stand apart in the source and are kept apart here.

Key:
[1] = system: LoVo Colon cell line; assay: Cytotoxicity assay using LoVo colon cell line, SRB; format: cell-based; details: read-out: Inhibition of LoVo
Summary of the method: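 LoVo cells (4000/well, RPMI 1640 with 10% FBS, 37 °C, 7% CO2) seeded overnight, then exposed 4 days to serial dilutions spanning 5 pM-20 μM or 170 pg/ml-10 μg/ml. Survival by SRB staining; IC50 from curves relative to untreated controls.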

[2] = system: 80S14 (p21-deficient) cells; assay: Cytotoxicity assay using isogenic cell lines: IC50 in 80S14 (p21-deficient) cells, SRB; format: cell-based, human
Summary of the method: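 80S14 (p21-deficient) cells seeded at 12,000 cells/well overnight, then exposed 5 days at 37 °C to serial dilutions (5 pM–50 μM or 170 pg/ml–10 μg/ml). TCA-fixed, sulforhodamine B-stained, absorbance at 560 nm; IC50 taken from cytotoxicity curves versus untreated controls.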

[3] = Homo sapiens, 96 h, Cellular activity in LoVo cell, 4 days incubation, SRB
[4] = Homo sapiens, 120 h, 80S14 (p21-deficient) cells, 5 days, SRB, class symbols, read-out: IC50 for 80S14
[5] = LoVo colon cells, 4 days incubation, SRB
[6] = 80S14 p21-deficient cells, 5 days incubation, SRB, read-out: IC50 for 80SI4
[7] = Homo sapiens, 96 h, LoVo colon cells, 4 days incubation, SRB
[8] = Homo sapiens, 120 h, 80S14 p21-deficient cells, 5 days incubation, SRB, read-out: IC50 for 80SI4
[9] = Homo sapiens, 80S14, 120 h, read-out: IC50 for 80SI4 (uM)

Compound | IC50 [1, 3] | IC50 [2, 4] | other results
COc1ccc(/C=C/CNc2cccc(-c3ccnc4c(C(=O)c5cccs5)cnn34)c2)cc1 [Example 396, [7-(3-{[(2E)-3-(4-Methoxyphenyl)prop-2-enyl]amino}phenyl)pyrazolo[1,5-a]pyrimidin-3-yl](thien-2-yl)methanone] | 1000 to 20000 nM | 10 to 50 µM | 
O=C(O)CCc1ccc(-c2cccc(-c3ccnc4c(C(=O)c5cccs5)cnn34)c2)cc1 [Example 457, 3-{3′-[3-(Thien-2-ylcarbonyl)pyrazolo[1,5-a]pyrimidin-7-yl]-1,1′-biphenyl-4-yl}propanoic acid] | 100 to 1000 nM | 10 to 50 µM | 
O=C(c1cccs1)c1cnn2c(-c3cccc(-c4nnn(CC5CCC5)n4)c3)ccnc12 [Example 505, (7-{3-[2-(Cyclobutylmethyl)-2H-tetraazol-5-yl]phenyl}pyrazolo[1,5-a]pyrimidin-3-yl)(thien-2-yl)methanone] | < 100 nM | < 1 µM | 
O=C(Nc1cccc(-c2ccnc3c(C(=O)c4cccs4)cnn23)c1)OCCCl [Example 22] |  |  | IC50 [1, 5]: < 100 nM; IC50 [2, 6]: < 1 µM
CCCOC(=O)Nc1cccc(-c2c(C)cnc3c(C(=O)c4cccs4)cnn23)c1 [Example 208, propyl 3-[6-methyl-3-(thien-2-ylcarbonyl)pyrazolo[1,5-a]pyrimidin-7-yl]phenylcarbamate] |  |  | IC50 [1, 7]: 100 to 1000 nM; IC50 [2, 8]: 10 to 50 µM
CC(C)NC(=O)Nc1ccc(-c2ccnc3c(C(=O)c4cccs4)cnn23)s1 [Example 329, N-Isopropyl-N′-{5-[3-(thien-2-ylcarbonyl)pyrazolo[1,5-a]pyrimidin-7-yl]thien-2-yl}urea] | 100 to 1000 nM | 1 to 10 µM | 
CC(C)(C)CC(=O)Nc1cccc(-c2ccnc3c(C(=O)c4cccs4)cnn23)c1 [Example 55, 3,3-dimethyl-N-{3-[3-(thien-2-ylcarbonyl)pyrazolo[1,5-a]pyrimidin-7-yl]phenyl}butanamide] |  |  | IC50 ([1]; Homo sapiens, LoVo, 96 h): < 100 nM; IC50 [2, 9]: < 1 µM
O=C(c1cccs1)c1cnn2c(-c3cccc(NC(=O)C4CCCC4)c3)ccnc12 [Example 283, N-{3-[3-(2-Thienylcarbonyl)pyrazolo[1,5-a]pyrimidin-7-yl]phenyl}cyclopentanecarboxamide] | < 100 nM | < 1 µM | 
CC(C)CC(=O)Nc1cccc(-c2ccnc3c(-c4ccc5[nH]ccc5c4)cnn23)c1 [Example 466, N-{3-[3-(1H-Indol-5-yl)pyrazolo[1,5-a]pyrimidin-7-yl]phenyl}-3-methylbutanamide] | < 100 nM | 1 to 10 µM | 
CC(C)CC(=O)Nc1cccc(-c2ccnc3c(-c4cccc(C(F)(F)F)c4)cnn23)c1 [Example 477, 3-Methyl-N-(3-{3-[3-(trifluoromethyl)phenyl]pyrazolo[1,5-a]pyrimidin-7-yl}phenyl)butanamide] | 1000 to 20000 nM | 10 to 50 µM | 
CN(C)c1ccc(-c2ccnc3c(C(=O)c4cccs4)cnn23)cc1NC(=O)c1ccccc1Cl [Example 421, 2-Chloro-N-{2-(dimethylamino)-5-[3-(thien-2-ylcarbonyl)pyrazolo[1,5-a]pyrimidin-7-yl]phenyl}benzamide] | 100 to 1000 nM | < 1 µM | 
O=C(c1cccs1)c1cnn2c(-c3ccc(F)c(-c4ccc(CO)cc4)c3)ccnc12 [Example 455, {7-[6-Fluoro-4′-(hydroxymethyl)-1,1′-biphenyl-3-yl]pyrazolo[1,5-a]pyrimidin-3-yl}(thien-2-yl)methanone] | 100 to 1000 nM | 1 to 10 µM | 
CCC(C)NC(=O)Nc1cccc(-c2ccnc3c(C(=O)c4cccs4)cnn23)c1 (stereo not shown) [Example 158, N-(sec-butyl)-N′-{3-[3-(thien-2-ylcarbonyl)pyrazolo[1,5-a]pyrimidin-7-yl]phenyl}urea] |  |  | IC50 [1, 7]: < 100 nM; IC50 [2, 8]: < 1 µM
CCCCNc1cccc(-c2ccnc3c(C(=O)c4cccs4)cnn23)c1 [Example 380, {7-[3-(Butylamino)phenyl]pyrazolo[1,5-a]pyrimidin-3-yl}(thien-2-yl)methanone] | < 100 nM | < 1 µM | 
CC(C)(C)COC(=O)Nc1cccc(-c2ccnc3c(C(=O)c4cccs4)cnn23)c1 [Example 17, neopentyl 3-[3-(thien-2-ylcarbonyl)pyrazolo[1,5-a]pyrimidin-7-yl]phenylcarbamate] |  |  | IC50 [1, 7]: < 100 nM; IC50 [2, 8]: < 1 µM
O=C(Nc1cccc(-c2ccnc3c(C(=O)c4cccs4)cnn23)c1)c1cn[nH]c1 [Example 441, N-{3-[3-(Thien-2-ylcarbonyl)pyrazolo[1,5-a]pyrimidin-7-yl]phenyl}-1H-pyrazole-4-carboxamide] | 1000 to 20000 nM | 10 to 50 µM | 

Compound | IC50 [1, 3] | IC50 [2, 4] | other results
O=C(Nc1cc(-c2ccnc3c(C(=O)c4cccs4)cnn23)ccc1F)c1ccncc1 [Example 388, N-{2-Fluoro-5-[3-(thien-2-ylcarbonyl)pyrazolo[1,5-a]pyrimidin-7-yl]phenyl}isonicotinamide] | < 100 nM | < 1 µM | 
O=C(Nc1cccc(-c2ccnc3c(C(=O)c4cccs4)cnn23)c1)OC1C=CCCC1 (stereo not shown) [Example 173, cyclohex-2-en-1-yl 3-[3-(thien-2-ylcarbonyl)pyrazolo[1,5-a]pyrimidin-7-yl]phenylcarbamate] |  |  | IC50 [1, 7]: < 100 nM; IC50 [2, 8]: < 1 µM
O=C(c1cccs1)c1cnn2c(-c3csc([N+](=O)[O-])c3)ccnc12 [Example 328, [7-(5-Nitro-3-thienyl)pyrazolo[1,5-a]pyrimidin-3-yl](2-thienyl)methanone] | 100 to 1000 nM | 1 to 10 µM | 
CC(C)OC(=O)Nc1cc(-c2ccnc3c(C(=O)c4cccs4)cnn23)ccc1N(C)C [Example 348, Isopropyl 2-(dimethylamino)-5-[3-(thien-2-ylcarbonyl)pyrazolo[1,5-a]pyrimidin-7-yl]phenylcarbamate] | 100 to 1000 nM | 1 to 10 µM | 
O=C(c1cccs1)c1cnn2c(-c3cccc(N(C(=O)c4c(Cl)cccc4Cl)C(=O)c4c(Cl)cccc4Cl)c3)ccnc12 [Example 391, 2,6-Dichloro-N-(2,6-dichlorobenzoyl)-N-{3-[3-(thien-2-ylcarbonyl)pyrazolo[1,5-a]pyrimidin-7-yl]phenyl}benzamide] | 1000 to 20000 nM | 10 to 50 µM | 
Cc1cc(-c2cccc(NC(=O)OCCCl)c2)n2ncc(C(=O)c3cccs3)c2n1 [Example 198, 2-chloroethyl 3-[5-methyl-3-(thien-2-ylcarbonyl)pyrazolo[1,5-a]pyrimidin-7-yl]phenylcarbamate] |  |  | IC50 [1, 7]: < 100 nM; IC50 [2, 8]: < 1 µM
O=C(Nc1cccc(-c2ccnc3c(C(=O)c4cccs4)cnn23)c1)OCC1CCCCC1 [Example 175, cyclohexylmethyl 3-[3-(thien-2-ylcarbonyl)pyrazolo[1,5-a]pyrimidin-7-yl]phenylcarbamate] |  |  | IC50 [1, 7]: < 100 nM; IC50 [2, 8]: < 1 µM
O=C(CCc1ccncc1)Nc1cccc(-c2ccnc3c(C(=O)c4cccs4)cnn23)c1 [Example 440, 3-Pyridin-4-yl-N-{3-[3-(thien-2-ylcarbonyl)pyrazolo[1,5-a]pyrimidin-7-yl]phenyl}propanamide] | 100 to 1000 nM | 1 to 10 µM | 
CCOC(=O)Nc1cccc(-c2ccnc3c(C(=O)c4cccs4)cnn23)c1 [Example 25, ethyl 3-[3-(thien-2-ylcarbonyl)pyrazolo[1,5-a]pyrimidin-7-yl]phenylcarbamate] |  |  | IC50 ([1]; Homo sapiens, LoVo, 96 h): < 100 nM; IC50 [2, 9]: < 1 µM
N-{3-[3-(thien-2-ylcarbonyl)pyrazolo[1,5-a]pyrimidin-7-ylphenyl}morpholne-4-carboxamide [Example 157] |  |  | IC50 [1, 5]: 100 to 1000 nM; IC50 [2, 6]: 1 to 10 µM
CC/C=C/CNc1cccc(-c2ccnc3c(C(=O)c4cccs4)cnn23)c1 [Example 432, (7-{3-[(2E)-Pent-2-enylamino]phenyl}pyrazolo[1,5-a]pyrimidin-3-yl)(thien-2-yl)methanone] | < 100 nM | < 1 µM | 
C/C=C(\C)CNc1cccc(-c2ccnc3c(C(=O)c4cccs4)cnn23)c1 [Example 431, [7-(3-{[(2E)-2-Methylbut-2-enyl]amino}phenyl)pyrazolo[1,5-a]pyrimidin-3-yl] (thien-2-yl)methanone] | 100 to 1000 nM | 1 to 10 µM | 
O=C(c1cccs1)c1cnn2c(-c3cccc(NCc4ccccc4Cl)c3)ccnc12 [Example 368, (7-{3-[(2-Chlorobenzyl)amino]phenyl}pyrazolo[1,5-a]pyrimidin-3-yl)(thien-2-yl)methanone] | 100 to 1000 nM | 1 to 10 µM | 
CSCCOC(=O)Nc1cccc(-c2ccnc3c(C(=O)c4cccs4)cnn23)c1 [Example 178, 2-(methylthio)ethyl 3-[3-(thien-2-ylcarbonyl)pyrazolo[1,5-a]pyrimidin-7-yl]phenylcarbamate] |  |  | IC50 [1, 7]: < 100 nM; IC50 [2, 8]: < 1 µM
CC(C)CC(=O)Nc1cccc(-c2ccnc3c(-c4cc(Cl)cc(Cl)c4)cnn23)c1 [Example 475, N-{3-[3-(3,5-Dichlorophenyl)pyrazolo[1,5-a]pyrimidin-7-yl]phenyl}-3-methylbutanamide] | 1000 to 20000 nM | 1 to 10 µM | 
O=C(c1cccs1)c1cnn2c(-c3cccc(-c4nnn(CCN5CCCCC5)n4)c3)ccnc12 [Example 512, (7-{3-[2-(2-Piperidin-1-ylethyl)-2H-tetraazol-5-yl]phenyl}pyrazolo[1,5-a]pyrimidin-3-yl)(thien-2-yl)methanone] | 100 to 1000 nM | 1 to 10 µM | 
